Literature values in article PMC10123561 (Signal Transduction and Targeted Therapy, 2023).

Tests used:
SARS-CoV-2 = conditions: MOVe-OUT, non-hospitalized patients; cited from earlier work
M^pro = conditions: read-out: Activity: IC50; cited from earlier work

Compound | decrease of the risk of hospitalization or death (SARS-CoV-2) [%] | IC50 (M^pro) [µM]
CC(C)C(=O)OC[C@H]1O[C@@H](n2ccc(NO)nc2=O)[C@H](O)[C@@H]1O [molnupiravir] | 48 | 
CC(C)(C)NC(=O)[C@@H](c1cccnc1)N(C(=O)c1ccco1)c1ccc(C(C)(C)C)cc1 [0EN] |  | 4.8
O=C(Sc1n[nH]c(C(F)(F)F)n1)c1ccc(C#Cc2ccccc2)o1 [F3F] |  | 3
CCOC(=O)CC[C@H](C[C@@H]1CCNC1=O)NC(=O)[C@H](CC=C(C)C)CC(=O)[C@@H](NC(=O)[C@H](CO)NC(=O)OC(C)(C)C)C(C)C [CYV] |  | 80
